Read-outs that look alike come from different tables or passages of the source.
Legend:
HCT116 = experiment: cells; format: cell-based; settings: basal; for IC50: assay number 25, read-out: Basal_Viability ATP HCT116 summarized IC50
DLD-1 = experiment: cells; format: cell-based; settings: basal; for IC50: assay number 23, read-out: Basal_Viability ATP DLD-1 summarized IC50
HeLa cells = experiment: cells; format: cell-based;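 for Hela CellCycMod PI 4N summarized IC50: value tracks stimulation of 4N DNA content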
hKDR = target: T1, hKDR (Homo sapiens, UniProt P35968); experiment: Cerep LANCE kinase assay hKDR (S1 assay 32); format: biochemical; settings: for IC50: assay number 32, read-out: hKDR LANCE summarized IC50
T1 construct: purchased Cerep (LANCE kinase assay platform, contract assay)
T1 sequence (P35968 20-1356): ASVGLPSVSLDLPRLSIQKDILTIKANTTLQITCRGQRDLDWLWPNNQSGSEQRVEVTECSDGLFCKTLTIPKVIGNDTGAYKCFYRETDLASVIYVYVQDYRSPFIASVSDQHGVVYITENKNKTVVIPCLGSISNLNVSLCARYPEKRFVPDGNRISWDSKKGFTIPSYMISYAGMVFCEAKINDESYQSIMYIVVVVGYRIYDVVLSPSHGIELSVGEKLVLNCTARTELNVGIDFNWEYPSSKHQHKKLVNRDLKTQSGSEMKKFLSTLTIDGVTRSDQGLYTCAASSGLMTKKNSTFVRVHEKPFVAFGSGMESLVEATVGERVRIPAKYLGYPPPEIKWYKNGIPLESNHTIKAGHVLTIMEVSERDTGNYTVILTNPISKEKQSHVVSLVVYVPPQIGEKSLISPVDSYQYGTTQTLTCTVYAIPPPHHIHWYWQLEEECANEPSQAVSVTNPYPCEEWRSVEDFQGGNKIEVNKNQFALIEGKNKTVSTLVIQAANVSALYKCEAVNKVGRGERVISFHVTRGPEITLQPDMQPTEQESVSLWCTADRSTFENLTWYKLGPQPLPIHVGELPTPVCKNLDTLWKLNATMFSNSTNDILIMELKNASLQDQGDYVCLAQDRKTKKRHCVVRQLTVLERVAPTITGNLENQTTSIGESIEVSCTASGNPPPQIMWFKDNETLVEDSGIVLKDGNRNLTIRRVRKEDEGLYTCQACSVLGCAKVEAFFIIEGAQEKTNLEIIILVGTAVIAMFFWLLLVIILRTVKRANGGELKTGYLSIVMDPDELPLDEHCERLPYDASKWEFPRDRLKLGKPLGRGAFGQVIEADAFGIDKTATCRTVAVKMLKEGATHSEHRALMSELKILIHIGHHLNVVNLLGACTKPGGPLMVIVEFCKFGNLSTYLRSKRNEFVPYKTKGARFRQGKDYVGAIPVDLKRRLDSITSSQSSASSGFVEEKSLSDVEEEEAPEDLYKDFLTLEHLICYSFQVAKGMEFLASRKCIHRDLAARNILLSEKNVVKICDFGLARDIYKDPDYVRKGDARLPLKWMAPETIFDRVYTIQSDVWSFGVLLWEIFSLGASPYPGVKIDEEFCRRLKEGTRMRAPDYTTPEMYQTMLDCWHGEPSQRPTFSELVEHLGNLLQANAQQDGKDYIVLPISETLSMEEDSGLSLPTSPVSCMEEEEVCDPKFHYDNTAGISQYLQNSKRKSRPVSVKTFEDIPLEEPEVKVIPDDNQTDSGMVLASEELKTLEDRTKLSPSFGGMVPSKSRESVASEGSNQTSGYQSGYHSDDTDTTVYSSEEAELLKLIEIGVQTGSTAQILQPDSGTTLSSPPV

[1] = test system: HCT116 cells treated with a GSK3β inhibitor; experiment: cells; format: cell-based; settings: for IC50/EC50, GSK3b inh pretreated_Viability ATP HCT116 (assay number 26): GSK3b inh pretreated; for IC50: assay number 26, GSK3b inhibitor pretreated, read-out: GSK3b inh pretreated_Viability ATP HCT116 summarized IC50
hGSK3b = target: T2, hGSK3b (Homo sapiens, UniProt P49841); experiment: Cerep LANCE kinase assay hGSK3b (S1 assay 34); format: biochemical; settings: for IC50: assay number 34, read-out: hGSK3b LANCE summarized IC50
T2 construct: purchased Cerep (LANCE kinase assay platform, contract assay)
T2 sequence (P49841 whole entry): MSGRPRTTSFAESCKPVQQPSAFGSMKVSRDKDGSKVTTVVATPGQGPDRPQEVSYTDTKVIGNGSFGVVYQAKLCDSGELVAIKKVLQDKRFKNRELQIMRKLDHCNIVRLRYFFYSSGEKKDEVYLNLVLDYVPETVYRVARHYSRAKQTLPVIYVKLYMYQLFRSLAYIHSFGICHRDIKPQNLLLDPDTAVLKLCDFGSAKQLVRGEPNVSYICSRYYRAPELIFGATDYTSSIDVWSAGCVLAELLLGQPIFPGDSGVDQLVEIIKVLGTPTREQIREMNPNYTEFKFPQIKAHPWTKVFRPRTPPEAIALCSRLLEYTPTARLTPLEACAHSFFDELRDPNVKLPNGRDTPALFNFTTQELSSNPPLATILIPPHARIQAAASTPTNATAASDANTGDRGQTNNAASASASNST

hp70S6K1 (RPS6KB1) = target: T3, hp70S6K1 (RPS6KB1) (Homo sapiens, UniProt P23443); experiment: Cerep LANCE kinase assay hp70S6K1 (S1 assay 31); format: biochemical; settings: for IC50: assay number 31, read-out: hp70S6K1 LANCE summarized IC50
T3 construct: purchased Cerep (LANCE kinase assay platform, contract assay)
T3 sequence (P23443 whole entry): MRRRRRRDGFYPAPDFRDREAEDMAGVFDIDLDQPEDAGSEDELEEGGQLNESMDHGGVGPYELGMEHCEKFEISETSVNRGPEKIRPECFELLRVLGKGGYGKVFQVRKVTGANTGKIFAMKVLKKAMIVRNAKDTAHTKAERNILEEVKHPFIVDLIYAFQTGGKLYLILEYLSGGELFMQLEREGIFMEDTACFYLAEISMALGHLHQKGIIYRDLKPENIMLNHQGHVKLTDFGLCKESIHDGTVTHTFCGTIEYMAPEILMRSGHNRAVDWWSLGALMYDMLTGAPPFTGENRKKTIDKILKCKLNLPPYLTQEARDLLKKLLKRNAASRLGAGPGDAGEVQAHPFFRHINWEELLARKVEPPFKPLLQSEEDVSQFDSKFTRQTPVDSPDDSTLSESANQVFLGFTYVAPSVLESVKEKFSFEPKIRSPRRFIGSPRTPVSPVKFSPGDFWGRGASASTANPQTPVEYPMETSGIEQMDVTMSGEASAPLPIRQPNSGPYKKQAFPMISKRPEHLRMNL

RKO = experiment: cells; format: cell-based; settings: basal; for IC50: assay number 29, read-out: Basal_Viability ATP RKO summarized IC50
hFLT3 = target: T4, hFLT3 (Homo sapiens, UniProt P36888); experiment: Cerep LANCE kinase assay hFLT3 (S1 assay 35); format: biochemical; settings: for IC50: assay number 35, read-out: hFLT3 LANCE summarized IC50
T4 construct: purchased Cerep (LANCE kinase assay platform, contract assay)
T4 sequence (P36888 27-993): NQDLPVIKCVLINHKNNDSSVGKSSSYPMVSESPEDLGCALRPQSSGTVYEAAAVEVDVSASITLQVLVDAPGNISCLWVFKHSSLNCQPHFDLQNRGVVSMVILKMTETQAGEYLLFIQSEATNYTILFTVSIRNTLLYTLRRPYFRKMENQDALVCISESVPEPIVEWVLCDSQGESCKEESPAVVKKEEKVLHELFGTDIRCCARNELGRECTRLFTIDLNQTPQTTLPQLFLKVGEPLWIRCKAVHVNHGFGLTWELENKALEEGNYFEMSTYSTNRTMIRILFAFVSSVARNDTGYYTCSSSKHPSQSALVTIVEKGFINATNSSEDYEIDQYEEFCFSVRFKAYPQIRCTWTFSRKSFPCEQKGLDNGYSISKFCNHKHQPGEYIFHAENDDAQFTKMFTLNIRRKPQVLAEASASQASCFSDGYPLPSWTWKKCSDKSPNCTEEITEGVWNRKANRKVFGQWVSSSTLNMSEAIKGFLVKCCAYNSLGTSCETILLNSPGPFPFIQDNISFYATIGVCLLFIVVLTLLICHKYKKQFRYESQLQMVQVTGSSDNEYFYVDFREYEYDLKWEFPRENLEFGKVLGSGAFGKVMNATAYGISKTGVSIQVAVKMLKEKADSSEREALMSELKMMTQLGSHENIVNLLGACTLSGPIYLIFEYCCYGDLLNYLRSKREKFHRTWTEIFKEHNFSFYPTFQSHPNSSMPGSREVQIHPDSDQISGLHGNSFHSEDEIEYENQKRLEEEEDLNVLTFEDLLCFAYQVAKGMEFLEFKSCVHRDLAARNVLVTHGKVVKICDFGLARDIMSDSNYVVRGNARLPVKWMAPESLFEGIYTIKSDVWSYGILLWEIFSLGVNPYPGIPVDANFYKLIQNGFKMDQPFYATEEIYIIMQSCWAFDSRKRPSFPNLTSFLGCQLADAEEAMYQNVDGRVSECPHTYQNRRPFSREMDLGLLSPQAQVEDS

hJAK2 = target: T5, hJAK2 (Homo sapiens, UniProt O60674); experiment: Cerep LANCE kinase assay hJAK2 (S1 assay 33); format: biochemical; settings: for IC50: assay number 33, read-out: hJAK2 LANCE summarized IC50
T5 construct: purchased Cerep (LANCE kinase assay platform, contract assay)
T5 sequence (O60674 whole entry): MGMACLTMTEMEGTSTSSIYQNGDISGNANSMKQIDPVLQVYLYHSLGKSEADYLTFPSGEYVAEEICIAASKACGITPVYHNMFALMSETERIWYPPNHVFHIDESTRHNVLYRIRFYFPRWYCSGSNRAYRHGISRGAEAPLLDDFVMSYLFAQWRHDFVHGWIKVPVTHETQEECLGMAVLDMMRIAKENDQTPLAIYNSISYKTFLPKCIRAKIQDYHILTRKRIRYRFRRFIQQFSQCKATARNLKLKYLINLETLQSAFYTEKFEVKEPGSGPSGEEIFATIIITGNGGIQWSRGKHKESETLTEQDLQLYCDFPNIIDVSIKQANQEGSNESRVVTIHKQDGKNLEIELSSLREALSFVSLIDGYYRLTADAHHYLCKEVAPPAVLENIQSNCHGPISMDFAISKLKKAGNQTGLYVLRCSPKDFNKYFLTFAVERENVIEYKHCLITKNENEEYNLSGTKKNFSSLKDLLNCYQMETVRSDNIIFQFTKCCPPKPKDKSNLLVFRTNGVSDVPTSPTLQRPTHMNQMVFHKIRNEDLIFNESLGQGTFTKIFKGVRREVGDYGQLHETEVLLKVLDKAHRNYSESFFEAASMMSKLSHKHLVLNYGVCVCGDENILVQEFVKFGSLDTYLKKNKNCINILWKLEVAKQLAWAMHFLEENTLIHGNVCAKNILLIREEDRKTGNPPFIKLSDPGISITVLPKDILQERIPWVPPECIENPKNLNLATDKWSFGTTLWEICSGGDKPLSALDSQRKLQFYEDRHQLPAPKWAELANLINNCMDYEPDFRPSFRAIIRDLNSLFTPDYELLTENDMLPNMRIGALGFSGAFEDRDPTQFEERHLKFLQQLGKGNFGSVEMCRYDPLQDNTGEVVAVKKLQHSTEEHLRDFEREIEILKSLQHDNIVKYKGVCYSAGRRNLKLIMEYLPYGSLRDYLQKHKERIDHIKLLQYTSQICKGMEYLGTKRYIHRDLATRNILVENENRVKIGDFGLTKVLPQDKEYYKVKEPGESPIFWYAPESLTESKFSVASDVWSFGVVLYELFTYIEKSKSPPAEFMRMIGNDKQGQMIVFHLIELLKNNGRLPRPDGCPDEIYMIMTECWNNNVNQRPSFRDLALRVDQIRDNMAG

Colo320 = experiment: cells; format: cell-based; settings: basal; for IC50: assay number 27, read-out: Basal_Viability ATP Colo 320 summarized IC50
HT-29 = experiment: cells; format: cell-based; settings: basal; for IC50: assay number 28, read-out: Basal_Viability ATP HT-29 summarized IC50
SW480 = experiment: cells; format: cell-based; settings: basal; for IC50: assay number 24, read-out: Basal_Viability ATP SW480 summarized IC50
SNU-C1 = experiment: cells; format: cell-based; settings: basal; for IC50: assay number 30, read-out: Basal_Viability ATP SNU-C1 summarized IC50
[2] = test system: endothelial tube formation in co-cultures of ECFCs and ADSCs treated with VEGF; experiment: cells; format: cell-based, human; settings: for IC50: read-out: VEGF_ADSC\ECFC Angio CD31 TubeArea summarized IC50
[3] = test system: ECFC/ADSC co-culture cell nuclei number; settings: for IC50: read-out: VEGF_ADSC\ECFC Angio Hoechst NucArea summarized IC50
[4] = assay number 14, 2N, read-out: Hela CellCycMod PI 2N summarized IC50
[5] = assay number 16, 4N, read-out: Hela CellCycMod PI 4N summarized IC50
[6] = assay number 17, MI, read-out: Hela CellCycMod PI MI summarized IC50

Structure (SMILES): Cn1cnc([N+](=O)[O-])c1Sc1ncnc2nc[nH]c12 [NCGC00015060-18]
- IC50/EC50, Basal_Viability ATP HCT116 (assay number 25) (HCT116): 0.2074 µM
- IC50/EC50, Basal_Viability ATP DLD-1 (assay number 23) (DLD-1): 0.3635 µM
- IC50/EC50, Hela CellCycMod PI 2N (assay number 14) (HeLa cells; 2N): > 10 µM
- IC50/EC50, Hela CellCycMod PI 4N (assay number 16) (HeLa cells; 4N): > 10 µM
- IC50/EC50, Hela CellCycMod PI Cell Number (assay number 18) (HeLa cells): > 10 µM
- IC50/EC50, Hela CellCycMod PI MI (assay number 17) (HeLa cells; MI): > 10 µM
- IC50/EC50, Hela CellCycMod PI S Phase (assay number 15) (HeLa cells): > 10 µM
- IC50/EC50, hKDR LANCE (assay number 32) (hKDR): > 20 µM
- IC50/EC50, GSK3b inh pretreated_Viability ATP HCT116 (assay number 26) [1]: 0.6232 µM
- IC50/EC50, hGSK3b LANCE (assay number 34) (hGSK3b): > 20 µM
- IC50/EC50, hp70S6K1 LANCE (assay number 31) (hp70S6K1 (RPS6KB1)): > 20 µM
- IC50/EC50, Basal_Viability ATP RKO (assay number 29) (RKO): 2.661 µM
- IC50/EC50, hFLT3 LANCE (assay number 35) (hFLT3): > 20 µM
- IC50/EC50, hJAK2 LANCE (assay number 33) (hJAK2): > 20 µM
- IC50/EC50, Basal_Viability ATP Colo 320 (assay number 27) (Colo320): 10.3402 µM
- IC50/EC50, Basal_Viability ATP HT-29 (assay number 28) (HT-29): > 20 µM
- IC50/EC50, Basal_Viability ATP SW480 (assay number 24) (SW480): 9.4353 µM
- IC50/EC50, Basal_Viability ATP SNU-C1 (assay number 30) (SNU-C1): > 20 µM

Structure (SMILES): O=c1[nH]c(=O)n([C@H]2C[C@H](O)[C@@H](CO)O2)cc1F [NCGC00023722-08]
- IC50/EC50, Basal_Viability ATP HCT116 (assay number 25) (HCT116): 0.001 µM
- IC50/EC50, Basal_Viability ATP DLD-1 (assay number 23) (DLD-1): 0.001 µM
- IC50/EC50, Hela CellCycMod PI 2N (assay number 14) (HeLa cells; 2N): > 10 µM
- IC50/EC50, Hela CellCycMod PI 4N (assay number 16) (HeLa cells; 4N): > 10 µM
- IC50/EC50, Hela CellCycMod PI Cell Number (assay number 18) (HeLa cells): > 10 µM
- IC50/EC50, Hela CellCycMod PI MI (assay number 17) (HeLa cells; MI): > 10 µM
- IC50/EC50, Hela CellCycMod PI S Phase (assay number 15) (HeLa cells): 0.1688 µM
- IC50/EC50, hKDR LANCE (assay number 32) (hKDR): > 20 µM
- IC50/EC50, GSK3b inh pretreated_Viability ATP HCT116 (assay number 26) [1]: 0.001 µM
- IC50/EC50, VEGF_ADSC\ECFC Angio CD31 TubeArea (assay number 2) [2]: 0.0216 µM
- IC50/EC50, hGSK3b LANCE (assay number 34) (hGSK3b): > 20 µM
- IC50/EC50, hp70S6K1 LANCE (assay number 31) (hp70S6K1 (RPS6KB1)): > 20 µM
- IC50/EC50, Basal_Viability ATP RKO (assay number 29) (RKO): 0.001 µM
- IC50/EC50, VEGF_ADSC\ECFC Angio Hoechst NucArea (assay number 3) [3]: > 10 µM
- IC50/EC50, hFLT3 LANCE (assay number 35) (hFLT3): > 20 µM
- IC50/EC50, hJAK2 LANCE (assay number 33) (hJAK2): > 20 µM
- IC50/EC50, Basal_Viability ATP Colo 320 (assay number 27) (Colo320): > 20 µM
- IC50/EC50, Basal_Viability ATP HT-29 (assay number 28) (HT-29): > 20 µM
- IC50/EC50, Basal_Viability ATP SW480 (assay number 24) (SW480): > 20 µM
- IC50/EC50, Basal_Viability ATP SNU-C1 (assay number 30) (SNU-C1): > 20 µM

Structure (SMILES): S=c1nc[nH]c2nc[nH]c12 [NCGC00094717-06]
- IC50 (HCT116): 0.259 µM
- IC50 (DLD-1): 0.26 µM
- IC50 (HeLa cells; [4]): > 10 µM
- IC50 (HeLa cells; [5]): > 10 µM
- IC50 (HeLa cells; [6]): > 10 µM
- IC50 (HeLa cells; assay number 18, cell number, read-out: Hela CellCycMod PI Cell Number summarized IC50): > 10 µM
- IC50 (hKDR): > 20 µM
- IC50 [1]: 1.42 µM
- IC50 [2]: 0.915 µM
- IC50 (hGSK3b): > 20 µM
- IC50 (hp70S6K1 (RPS6KB1)): > 20 µM
- IC50 (RKO): 0.659 µM
- IC50 [3]: > 10 µM
- IC50 (hFLT3): > 20 µM
- IC50 (hJAK2): > 20 µM
- IC50 (Colo320): 1.3 µM
- IC50 (HT-29): 0.635 µM
- IC50 (SW480): 1.04 µM
- IC50 (SNU-C1): > 20 µM

Structure (SMILES): Oc1c(Cl)cc(Cl)c2cccnc12 [NCGC00095264-04]
- IC50 (HCT116): 0.0475 µM
- IC50 (DLD-1): 0.409 µM
- IC50 (HeLa cells; [4]): > 10 µM
- IC50 (HeLa cells; [5]): > 10 µM
- IC50 (HeLa cells; [6]): > 10 µM
- IC50 (hKDR): > 20 µM
- IC50 [1]: 0.0393 µM
- IC50 [2]: 2 µM
- IC50 (hGSK3b): > 20 µM
- IC50 (hp70S6K1 (RPS6KB1)): > 20 µM
- IC50 (RKO): 0.0627 µM
- IC50 [3]: > 10 µM
- IC50 (hFLT3): > 20 µM
- IC50 (hJAK2): > 20 µM
- IC50 (Colo320): 0.0493 µM
- IC50 (HT-29): > 20 µM
- IC50 (SW480): 0.0438 µM
- IC50 (SNU-C1): 0.495 µM

From article PMC4503722, “Novel Phenotypic Outcomes Identified for a Public Collection of Approved Drugs from a Publicly Accessible Panel of Assays” (PLoS ONE, 2015)
